Test results: ChEMBL document CHEMBL1201862, “PubChem BioAssay data set” (2004)
The source made the active and inactive calls.

Key:
[1] = molecular target: ATP-dependent molecular chaperone HSP82 (Candida albicans (strain WO-1) (Yeast), UniProt C4YTQ8); experiment: loss of DOC-induced GRE-beta-galactosidase reporter signal, dose response, Hsp90 inhibitor project, S. cerevisiae, luminescence (AID 2400); assay type: functional, cell-based;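 also: beta-galactosidase luminescence from glucocorticoid response element reporter as proxy for Hsp90 function; inhibitor potency where signal loss means Hsp90 inhibition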
ATP-dependent molecular chaperone HSP82, sequence (C4YTQ8 whole entry): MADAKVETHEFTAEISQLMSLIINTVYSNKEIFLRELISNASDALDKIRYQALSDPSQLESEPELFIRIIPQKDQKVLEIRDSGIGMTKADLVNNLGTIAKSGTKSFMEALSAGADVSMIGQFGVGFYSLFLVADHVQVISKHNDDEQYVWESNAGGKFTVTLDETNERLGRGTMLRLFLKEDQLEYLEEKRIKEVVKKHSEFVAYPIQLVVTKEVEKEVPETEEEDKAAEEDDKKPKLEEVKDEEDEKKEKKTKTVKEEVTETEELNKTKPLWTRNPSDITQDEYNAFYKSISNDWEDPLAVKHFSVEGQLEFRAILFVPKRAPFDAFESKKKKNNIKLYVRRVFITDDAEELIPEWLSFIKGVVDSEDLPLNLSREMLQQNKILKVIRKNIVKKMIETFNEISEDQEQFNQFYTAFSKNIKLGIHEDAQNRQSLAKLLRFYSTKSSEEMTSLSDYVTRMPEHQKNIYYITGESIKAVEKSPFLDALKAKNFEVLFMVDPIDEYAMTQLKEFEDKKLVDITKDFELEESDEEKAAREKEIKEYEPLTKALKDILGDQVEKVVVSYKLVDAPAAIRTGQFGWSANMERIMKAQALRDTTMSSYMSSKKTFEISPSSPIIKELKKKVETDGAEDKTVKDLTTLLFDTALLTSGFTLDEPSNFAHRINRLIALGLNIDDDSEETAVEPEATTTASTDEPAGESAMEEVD

[2] = Counterscreen for AddAB inhibitors: absorbance-based bacterial cell-based high throughput dose response assay for inhibitors of bacterial viability. [Related pubchem assays (depositor defined):AID435030, AID449728, AID449731, AID488942, AID488955, AID488956]; assay type: functional
Cytochrome P450 3A4 = Cytochrome P450 3A4 (Homo sapiens, UniProt P08684);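 also: CYP3A4 tested as one member of a cytochrome P450 panel screen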
Cytochrome P450 3A4, sequence (P08684 whole entry): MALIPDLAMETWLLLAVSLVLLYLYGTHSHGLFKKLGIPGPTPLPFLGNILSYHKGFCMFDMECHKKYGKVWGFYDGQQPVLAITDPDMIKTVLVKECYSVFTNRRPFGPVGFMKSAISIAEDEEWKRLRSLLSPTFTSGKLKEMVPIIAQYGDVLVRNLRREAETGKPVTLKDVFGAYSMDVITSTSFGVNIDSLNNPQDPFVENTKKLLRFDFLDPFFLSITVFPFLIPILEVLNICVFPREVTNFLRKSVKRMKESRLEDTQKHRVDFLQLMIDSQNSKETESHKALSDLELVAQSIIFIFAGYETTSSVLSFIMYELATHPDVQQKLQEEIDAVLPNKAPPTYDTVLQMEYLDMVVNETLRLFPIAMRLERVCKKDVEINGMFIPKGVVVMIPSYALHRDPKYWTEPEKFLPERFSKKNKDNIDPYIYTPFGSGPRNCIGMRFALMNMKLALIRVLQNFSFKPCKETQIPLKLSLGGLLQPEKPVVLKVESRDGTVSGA

BJ = experiment: cytotoxicity toward Ras-transformed BJeLR fibroblasts, dose response, cell-based, alamar blue fluorescence, cherrypicked samples (AID 2631); assay type: functional; conditions: Homo sapiens;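 also: confirmatory dose-response assay in RAS-dependent BJ fibroblasts engineered with TERT, LT and ST, with cytotoxicity read by fluorescence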
[3] = HEK293T cytotoxicity, dose response, cytotoxicity control for miR-122 modulator project, cell-based, inhibitor set, cherry-pick, set 2 (AID 720697); assay type: functional
[4] = off-target signal loss in HeLa-CEM21 co-culture – HeLa F-luc CTL cells, cherry-picked, counter-screen for HIV-1 Env fusion inhibitor project, dose response (AID 652040); assay type: functional, cell-based;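 also: potency for signal decrease marking cytotoxic or nonspecific inhibition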
Streptokinase A = molecular target: T1, Streptokinase A (Streptococcus pyogenes serotype M1, UniProt P10520); experiment: S. pyogenes streptokinase expression inhibitors, potency, dose response, plasminogen activation absorbance, OD405 (AID 1914); assay type: functional, Streptococcus pyogenes M1 GAS;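 also: secreted streptokinase activity via plasminogen activation per viability signal from cell pellet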
T1 sequence (P10520 whole entry): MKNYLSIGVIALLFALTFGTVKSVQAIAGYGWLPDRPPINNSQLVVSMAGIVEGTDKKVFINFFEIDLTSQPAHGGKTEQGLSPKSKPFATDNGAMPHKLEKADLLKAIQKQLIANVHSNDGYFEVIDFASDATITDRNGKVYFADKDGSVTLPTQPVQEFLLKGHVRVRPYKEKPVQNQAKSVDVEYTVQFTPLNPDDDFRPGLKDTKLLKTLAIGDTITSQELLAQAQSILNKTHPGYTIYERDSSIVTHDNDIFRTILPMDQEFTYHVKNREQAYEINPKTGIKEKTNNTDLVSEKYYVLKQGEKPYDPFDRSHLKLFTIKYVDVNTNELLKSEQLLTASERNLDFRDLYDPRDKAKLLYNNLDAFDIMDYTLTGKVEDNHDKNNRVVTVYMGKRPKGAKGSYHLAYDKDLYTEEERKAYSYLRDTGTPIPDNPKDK

[5] = HEK293 cell cytotoxicity, dose response, cytotoxicity control, plate reader, cherry-picked samples (AID 743446); assay type: functional, cell-based
[6] = molecular target: Lysine-specific demethylase 4A (Homo sapiens, UniProt O75164); experiment: JMJD2A histone demethylase inhibitors, dose response, selectivity assay for GASC-1 inhibitor project, biochemical, DELFIA europium, cherry-picked samples (AID 488840)
Lysine-specific demethylase 4A, sequence (O75164 whole entry): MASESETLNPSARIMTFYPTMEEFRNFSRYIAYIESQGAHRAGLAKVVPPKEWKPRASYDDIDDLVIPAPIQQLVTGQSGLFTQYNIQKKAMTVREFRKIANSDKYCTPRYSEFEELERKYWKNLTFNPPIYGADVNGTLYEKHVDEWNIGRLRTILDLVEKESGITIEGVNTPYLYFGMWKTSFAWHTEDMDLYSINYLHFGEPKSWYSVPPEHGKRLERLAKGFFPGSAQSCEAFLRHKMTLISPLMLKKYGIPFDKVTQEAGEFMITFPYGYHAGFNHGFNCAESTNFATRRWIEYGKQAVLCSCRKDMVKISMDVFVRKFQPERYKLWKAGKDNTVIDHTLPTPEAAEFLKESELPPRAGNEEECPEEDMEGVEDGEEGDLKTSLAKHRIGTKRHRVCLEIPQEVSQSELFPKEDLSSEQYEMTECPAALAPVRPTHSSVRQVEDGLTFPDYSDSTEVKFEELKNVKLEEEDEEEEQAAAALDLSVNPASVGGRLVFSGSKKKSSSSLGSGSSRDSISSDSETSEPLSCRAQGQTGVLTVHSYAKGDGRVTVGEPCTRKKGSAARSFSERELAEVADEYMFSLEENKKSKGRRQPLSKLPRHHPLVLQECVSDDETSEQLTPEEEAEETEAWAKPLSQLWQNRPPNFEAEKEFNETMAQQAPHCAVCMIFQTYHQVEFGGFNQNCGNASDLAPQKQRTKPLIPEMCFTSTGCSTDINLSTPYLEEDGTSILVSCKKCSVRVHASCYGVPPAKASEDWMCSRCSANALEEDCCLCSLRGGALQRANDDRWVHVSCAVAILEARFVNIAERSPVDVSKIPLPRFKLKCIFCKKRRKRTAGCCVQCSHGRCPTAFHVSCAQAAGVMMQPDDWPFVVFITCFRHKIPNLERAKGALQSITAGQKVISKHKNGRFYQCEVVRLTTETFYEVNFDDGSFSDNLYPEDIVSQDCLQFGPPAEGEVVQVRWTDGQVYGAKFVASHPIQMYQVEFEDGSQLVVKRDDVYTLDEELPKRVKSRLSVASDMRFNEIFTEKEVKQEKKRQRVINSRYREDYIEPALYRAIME

[7] = HepG2 cell cytotoxicity, dose response, cytotoxicity control for Shn3 inhibitor project, CellTiter-Glo, cherry-picked (AID 624134); assay type: functional, cell-based
[8] = molecular target: T2, 1-phosphatidylinositol 4,5-bisphosphate phosphodiesterase beta-3 (Homo sapiens, UniProt Q01970); experiment: Fluorescence-based biochemical high throughput dose response assay to identify inhibitors of phospholipase C isozymes (PLC-B3).
T2 sequence (Q01970 whole entry): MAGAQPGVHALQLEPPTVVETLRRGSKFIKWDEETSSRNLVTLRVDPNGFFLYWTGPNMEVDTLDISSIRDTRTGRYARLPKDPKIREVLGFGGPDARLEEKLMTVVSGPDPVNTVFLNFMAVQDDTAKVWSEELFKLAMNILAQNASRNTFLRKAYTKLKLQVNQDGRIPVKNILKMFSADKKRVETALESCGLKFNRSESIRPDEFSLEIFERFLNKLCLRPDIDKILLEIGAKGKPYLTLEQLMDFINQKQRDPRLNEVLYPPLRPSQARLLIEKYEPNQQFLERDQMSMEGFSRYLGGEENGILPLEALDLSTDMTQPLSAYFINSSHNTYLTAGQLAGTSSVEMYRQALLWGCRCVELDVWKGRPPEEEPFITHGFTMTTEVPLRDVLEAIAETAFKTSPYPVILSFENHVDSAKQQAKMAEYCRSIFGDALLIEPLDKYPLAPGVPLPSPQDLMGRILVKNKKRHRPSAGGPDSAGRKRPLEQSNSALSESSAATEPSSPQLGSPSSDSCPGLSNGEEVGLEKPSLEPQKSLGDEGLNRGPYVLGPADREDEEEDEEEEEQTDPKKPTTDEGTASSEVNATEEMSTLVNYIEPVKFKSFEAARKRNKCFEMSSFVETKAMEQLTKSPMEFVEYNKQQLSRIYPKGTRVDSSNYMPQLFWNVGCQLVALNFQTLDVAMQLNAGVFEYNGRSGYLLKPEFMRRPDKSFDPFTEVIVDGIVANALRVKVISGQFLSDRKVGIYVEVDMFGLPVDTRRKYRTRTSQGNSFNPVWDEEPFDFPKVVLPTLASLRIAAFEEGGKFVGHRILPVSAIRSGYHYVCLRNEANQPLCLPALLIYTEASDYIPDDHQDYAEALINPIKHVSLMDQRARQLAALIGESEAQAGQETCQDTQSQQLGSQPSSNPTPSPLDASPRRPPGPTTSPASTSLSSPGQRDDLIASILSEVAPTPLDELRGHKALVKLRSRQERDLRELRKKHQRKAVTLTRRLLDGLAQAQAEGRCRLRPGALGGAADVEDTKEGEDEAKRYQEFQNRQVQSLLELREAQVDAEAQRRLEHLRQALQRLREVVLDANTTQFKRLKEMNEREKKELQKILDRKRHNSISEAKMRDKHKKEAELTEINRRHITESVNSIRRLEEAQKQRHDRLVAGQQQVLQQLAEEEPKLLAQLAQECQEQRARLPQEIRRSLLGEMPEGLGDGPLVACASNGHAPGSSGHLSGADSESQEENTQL

[9] = molecular target: Dual specificity protein phosphatase 6 (Rattus norvegicus, UniProt Q64346); experiment: MKP-3 phosphatase inhibitors, primary screen, biochemical, rat enzyme, in vitro (AID 425)
Dual specificity protein phosphatase 6, sequence (Q64346 whole entry): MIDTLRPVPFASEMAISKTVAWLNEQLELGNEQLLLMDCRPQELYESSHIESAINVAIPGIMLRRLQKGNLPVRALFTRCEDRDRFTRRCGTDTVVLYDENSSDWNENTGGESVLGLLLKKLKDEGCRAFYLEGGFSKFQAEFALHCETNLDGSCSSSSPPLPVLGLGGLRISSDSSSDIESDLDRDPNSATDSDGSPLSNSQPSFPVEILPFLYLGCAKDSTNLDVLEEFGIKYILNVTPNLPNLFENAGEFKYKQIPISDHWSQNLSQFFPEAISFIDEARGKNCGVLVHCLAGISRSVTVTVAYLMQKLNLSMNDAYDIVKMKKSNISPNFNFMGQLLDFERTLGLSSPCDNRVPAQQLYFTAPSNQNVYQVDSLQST

[10] = molecular target: T3, Zinc finger protein mex-5 (Caenorhabditis elegans, UniProt Q9XUB2); experiment: MEX-5/TCR-2 RNA interaction inhibitors, dose response, biochemical, C. elegans, fluorescence polarization (AID 1960)
T3 sequence (Q9XUB2 whole entry): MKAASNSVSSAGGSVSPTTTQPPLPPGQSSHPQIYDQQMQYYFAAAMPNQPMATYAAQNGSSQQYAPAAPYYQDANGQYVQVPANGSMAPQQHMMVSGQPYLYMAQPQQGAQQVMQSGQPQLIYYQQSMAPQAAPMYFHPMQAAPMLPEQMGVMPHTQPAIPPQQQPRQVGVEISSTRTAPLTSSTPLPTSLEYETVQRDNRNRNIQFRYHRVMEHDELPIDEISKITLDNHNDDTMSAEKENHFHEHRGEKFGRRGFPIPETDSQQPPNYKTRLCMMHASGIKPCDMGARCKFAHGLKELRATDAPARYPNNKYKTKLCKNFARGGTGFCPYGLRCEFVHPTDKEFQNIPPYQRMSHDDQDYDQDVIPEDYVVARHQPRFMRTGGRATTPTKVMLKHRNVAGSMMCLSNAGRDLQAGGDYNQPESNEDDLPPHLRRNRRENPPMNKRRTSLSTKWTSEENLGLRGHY

CCC(=O)NC(c1ccc(OC)cc1)c1cc(Cl)c2cccnc2c1O (stereo not drawn)
EC50 [1]: > 160 µM (inactive) | IC50 [2]: > 119 µM (inactive)

CCCCCCCCCCn1c2c(c(=N)c3c1CCC3)CCC2
AC50 (Cytochrome P450 3A4): 31.6 µM (inconclusive) | EC50 (BJ): 0.706 µM (active) | AC50 [3]: 1.8 µM (active) | AC50 [4]: 0.424 µM (active) | EC50 (Streptokinase A): 4.86 µM (active)

Cn1nc(-c2ccccn2)nc2c(=O)n(C)c(=O)nc1-2
AC50 [5]: 21.2 µM (active) | AC50 [6]: 5.1 µM (active) | AC50 [7]: 5.81 µM (active) | IC50 [8]: > 122 µM (inactive) | IC50 [9]: < 1.23 µM (not active)

COc1ccc(NS(=O)(=O)c2ccc3c(c2)[C@H]2C=CC[C@H]2[C@@H](c2ccc(C(=O)O)cc2)N3)cc1
EC50 [10]: 7.88 µM (active)
